Measured values as given in US10265303B2, “Hyperphenylalaninemia and treatments thereof” (BERGEN TEKNOLOGIOVERFØRING AS, priority 2015, dated 2019).

Assays:
human wild-type PAH = molecular target: T1, human wild-type PAH (Homo sapiens, UniProt P00439); experiment: PAH activity in lysates of HEK293 cells permanently expressing human wild-type PAH; format: cell-based
T1 construct: expressed in transfected cells
T1 sequence (P00439 1-452): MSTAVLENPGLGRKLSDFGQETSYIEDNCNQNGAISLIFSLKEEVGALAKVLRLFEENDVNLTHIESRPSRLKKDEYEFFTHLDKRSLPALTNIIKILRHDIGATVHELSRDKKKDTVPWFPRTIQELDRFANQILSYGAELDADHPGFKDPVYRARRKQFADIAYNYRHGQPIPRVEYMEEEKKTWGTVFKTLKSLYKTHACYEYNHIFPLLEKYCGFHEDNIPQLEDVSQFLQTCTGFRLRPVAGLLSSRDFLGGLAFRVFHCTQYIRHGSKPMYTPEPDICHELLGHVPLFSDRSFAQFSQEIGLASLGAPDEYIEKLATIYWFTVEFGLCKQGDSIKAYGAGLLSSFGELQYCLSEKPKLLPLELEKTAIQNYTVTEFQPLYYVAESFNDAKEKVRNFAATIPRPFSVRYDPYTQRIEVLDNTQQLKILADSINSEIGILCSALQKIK
Experimental: (§1) Human embryonic kidney cells (HEK293; Life Technologies™) permanently expressing WT-hPAH, prepared with the Flp-In system (Life Technologies™) were kindly provided by Per Knappskog, Haukeland University Hospital. About 1 million cells were grown in DMEM medium containing 4.5 g/l glucose, 10% (v/v) fetal calf serum, 0.25 mg/ml gentamycine, 2 mM L-glutamine and 50 μg/ml hygromycin B, and after 24 h medium was changed and the test compounds were added at a concentration of 0.02 mg/ml (1% DMSO). Eight hours later, the cells were harvested, and the pellets frozen in dry ice and stored at −80° C. […] To prepare the cell extracts, the frozen cell pellets were thawed in TBS (+protease inhibitor) buffer and cells were homogenized with 0.1% TX-100, incubated 15 minutes at 4° C. and extracts were clarified by centrifugation 20000 g for 15 min at 4° C. Protein concentrations were normalized using a Direct Detect Spectrometer (Merck Millipore).
The 7 selected compounds as well as the first generation pharmacological chaperones (Compounds III and IV) were further analyzed in the presence and absence of BH2 (200 μM), added as precursor of BH4, to account for additive effects. […]
as §1, with “and the compounds were” for “and the test compounds were”, “concentration of 0.04 mg/ml (1%” for “concentration of 0.02 mg/ml (1%”, “for 15 minutes at 4°” for “for 15 min at 4°”

[1] = molecular target: tyrosine hydroxylase (TH) (Homo sapiens, UniProt P07101); conditions: 68.9 μM, respect to 2% DMSO controls
Sequence of tyrosine hydroxylase (TH) (P07101 whole entry): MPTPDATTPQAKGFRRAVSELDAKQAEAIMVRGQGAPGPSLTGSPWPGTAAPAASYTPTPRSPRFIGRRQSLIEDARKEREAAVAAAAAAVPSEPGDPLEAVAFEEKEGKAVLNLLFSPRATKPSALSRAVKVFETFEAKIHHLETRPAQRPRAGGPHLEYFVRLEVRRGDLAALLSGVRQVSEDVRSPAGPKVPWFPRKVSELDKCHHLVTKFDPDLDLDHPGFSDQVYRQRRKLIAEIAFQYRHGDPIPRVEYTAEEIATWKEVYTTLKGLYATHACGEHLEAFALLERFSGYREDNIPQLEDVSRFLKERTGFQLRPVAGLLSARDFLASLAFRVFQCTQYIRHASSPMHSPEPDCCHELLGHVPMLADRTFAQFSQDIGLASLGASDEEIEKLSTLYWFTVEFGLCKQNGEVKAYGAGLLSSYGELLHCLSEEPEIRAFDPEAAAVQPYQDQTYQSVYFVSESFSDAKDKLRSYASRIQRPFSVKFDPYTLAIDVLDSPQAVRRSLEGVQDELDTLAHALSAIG

COc1cc(Cc2cnc(N)nc2N)cc(OC)c1OC [c53, trimethoprim]
effect on PAH activity (FIG. 1A) (human wild-type PAH; 0.04 mg/ml (average 116.7 μM), 1% DMSO, 8 h): very large stimulating effect | PAH activity-cells (%) (human wild-type PAH; 0.04 mg/ml compound, 1% DMSO, 8 h, Table 3): 148 ± 16% | increase of hPAH activity with respect to the control (FIG. 6) (human wild-type PAH; average compound concentration 144.9 μM, 1% DMSO, 8 h): around 40% | effect on PAH activity together with BH2 (FIG. 1B) (human wild-type PAH; compound average 116.7 μM plus BH2 200 μM): additive | effect on TH activity [1]: did not have large effect
